According to patent US12649722B2, “Herbicidal cinnoline derivatives” (SYNGENTA CROP PROTECTION AG, priority 2020, dated 2026):

Assays:
Format in all cases: in vivo
Solarium nigrum (SOLNI) [1] = test: Pre-emergence Test, SOLNI; conditions: 1000 g/ha, evaluated after 13 days
[2] = system: Amaranthus retoflexus (AMARE); test: Pre-emergence Test, AMARE; conditions: 1000 g/ha, evaluated after 13 days
[3] = system: Ipornoea hederacea (IPOHE); test: Pre-emergence Test, IPOHE; conditions: 1000 g/ha, evaluated after 13 days
[4] = system: Echinochloa crus-galli (ECHCG); test: Pre-emergence Test, ECHCG; conditions: 1000 g/ha, evaluated after 13 days
Lolium perenne (LOLPE) [5] = test: Pre-emergence Test, LOLPE; conditions: 1000 g/ha, evaluated after 13 days
Setaria faberi (SETFA) [6] = test: Pre-emergence Test, SETFA; conditions: 1000 g/ha, evaluated after 13 days
ZEAMX [7] = test: Pre-emergence Test, ZEAMX; conditions: 1000 g/ha, evaluated after 13 days
ABUTH [8] = test: Pre-emergence Test, ABUTH; conditions: 1000 g/ha, evaluated after 13 days
Solarium nigrum (SOLNI) [9] = test: Post-emergence Test, SOLNI; conditions: sprayed after 8 days cultivation, 1000 g/ha, evaluated after 13 days
Protocol: (§1) Seeds of a variety of test species are sown in standard soil in pots (Amaranthus retoflexus (AMARE), Solarium nigrum (SOLNI), Setaria faberi (SETFA), Lolium perenne (LOLPE), Echinochloa crus-galli (ECHCG), Ipornoea hederacea (IPOHE)). After 8 days cultivation under controlled conditions in a glasshouse (at 24° C./16° C., day/night; 14 hours light; 65% humidity), the plants are sprayed with an aqueous spray solution derived from the formulation of the technical active ingredient in acetone/water (50:50) solution containing 0.5% Tween 20 (polyoxyethylene sorbitan monolaurate, CAS RN 9005-64-5). Compounds are applied at 1000 g/ha unless otherwise stated. The test plants are then grown in a glasshouse under controlled conditions in a glasshouse (at 24° C./16° C., day/night; 14 hours light; 65% humidity) and watered twice daily. After 13 days the test is evaluated for the percentage damage caused to the plant. The biological activities are shown in the following table on a five-point scale (5=81-100%; 4=61-80%; 3=41-60%; 2=21-40%; 1=10-20%; 0=0%; −=not tested).

[10] = system: Amaranthus retoflexus (AMARE); test: Post-emergence Test, AMARE; conditions: sprayed after 8 days cultivation, 1000 g/ha, evaluated after 13 days
Method in brief: (§2)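 Pots sown with AMARE, SOLNI, SETFA, LOLPE, ECHCG, IPOHE, kept in glasshouse (24/16 °C, 14 h light, 65% humidity), sprayed at 1000 g/ha unless stated, in acetone/water 50:50 with 0.5% Tween 20. Damage scored after 13 days on a 0–5 scale (5=81–100%, 0=0%).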

[11] = system: Ipornoea hederacea (IPOHE); test: Post-emergence Test, IPOHE; conditions: sprayed after 8 days cultivation, 1000 g/ha, evaluated after 13 days
Method in brief: as §2

[12] = system: Echinochloa crus-galli (ECHCG); test: Post-emergence Test, ECHCG; conditions: sprayed after 8 days cultivation, 1000 g/ha, evaluated after 13 days
Method in brief: as §2

Lolium perenne (LOLPE) [13] = test: Post-emergence Test, LOLPE; conditions: sprayed after 8 days cultivation, 1000 g/ha, evaluated after 13 days
Protocol: as §1

Setaria faberi (SETFA) [14] = test: Post-emergence Test, SETFA; conditions: sprayed after 8 days cultivation, 1000 g/ha, evaluated after 13 days
Method in brief: as §2

ZEAMX [15] = test: Post-emergence Test, ZEAMX; conditions: sprayed after 8 days cultivation, 1000 g/ha, evaluated after 13 days
ABUTH [16] = test: Post-emergence Test, ABUTH; conditions: sprayed after 8 days cultivation, 1000 g/ha, evaluated after 13 days

SMILES	percentage damage caused to the plant, SOLNI (Solarium nigrum (SOLNI) [1])	percentage damage caused to the plant, AMARE [2]	percentage damage caused to the plant, IPOHE [3]	percentage damage caused to the plant, ECHCG [4]	percentage damage caused to the plant, LOLPE (Lolium perenne (LOLPE) [5])	percentage damage caused to the plant, SETFA (Setaria faberi (SETFA) [6])	percentage damage caused to the plant, ZEAMX (ZEAMX [7])	percentage damage caused to the plant, ABUTH (ABUTH [8])	percentage damage caused to the plant, SOLNI (Solarium nigrum (SOLNI) [9])	percentage damage caused to the plant, AMARE [10]	percentage damage caused to the plant, IPOHE [11]	percentage damage caused to the plant, ECHCG [12]	percentage damage caused to the plant, LOLPE (Lolium perenne (LOLPE) [13])	percentage damage caused to the plant, SETFA (Setaria faberi (SETFA) [14])	percentage damage caused to the plant, ZEAMX (ZEAMX [15])	percentage damage caused to the plant, ABUTH (ABUTH [16])
N#Cc1cccc2c1c(=O)c(C(=O)O)nn2-c1ccc(OC(F)(F)F)cc1 [Compound P8, 5-cyano-4-oxo-1-[4-(trifluoromethoxy)phenyl] cinnoline-3-carboxylic acid]	1 (1=10-20%)	2 (2=21-40%)	1 (1=10-20%)	5 (5=81-100%)	4 (4=61-80%)	5 (5=81-100%)	0 (0=0%)	1 (1=10-20%)	3 (3=41-60%)	4 (4=61-80%)	4 (4=61-80%)	4 (4=61-80%)	4 (4=61-80%)	4 (4=61-80%)	2 (2=21-40%)	1 (1=10-20%)
COC(=O)c1nn(-c2ccc(OC(F)(F)F)cc2)c2cccc(C(C)=O)c2c1=O [Compound P9, methyl 5-acetyl-4-oxo-1-[4-(trifluoromethoxy)phenyl] cinnoline-3-carboxylate]	3 (3=41-60%)	1 (1=10-20%)	3 (3=41-60%)	5 (5=81-100%)	4 (4=61-80%)	5 (5=81-100%)	4 (4=61-80%)	3 (3=41-60%)	4 (4=61-80%)	1 (1=10-20%)	2 (2=21-40%)	4 (4=61-80%)	4 (4=61-80%)	4 (4=61-80%)	4 (4=61-80%)	3 (3=41-60%)
